Source: patent US6355799B1, “Substituted benzene compounds, process for their preparation, and herbicidal and defoliant compositions containing them” (ISK Americas Incorporated, priority 1997, dated 2002)

Tests used:
Assay type in all cases: in vivo
[1] = test system: green foxtail (Setaria viridis, SETVI); assay: Post-emerge test, greenhouse herbicide activity screening; settings: post-emerge, 14 days after application, rating scale 0-100
Summary of the method: (§1)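 Plants grown in 10 cm pots of sandy loam mix received acetone-dissolved compounds through a moving flat-fan nozzle. Doses ranged from 15 to 1000 g ai/ha. Pre-emerge pots were seeded one day earlier, post-emerge pots 8–21 days earlier. Fourteen days on, each pot was graded 0–100 for damage.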

[2] = test system: redroot pigweed (Amaranthus retroflexus, AMARE); assay: as above; settings: post-emerge, 14 days after application
Summary of the method: as §1

[3] = test system: barnyardgrass (Echinochloa crus-galli, ECHCG); assay: as above; settings: post-emerge, 14 days after application, rating scale 0-100
Summary of the method: as §1

[4] = test system: ivyleaf morningglory (Ipomoea hederacea, IPOHE); assay: as above; settings: post-emerge, 14 days after application, rating scale 0-100
Summary of the method: as §1

[5] = test system: johnsongrass (Sorghum halepense, SORHA); assay: as above; settings: post-emerge, 14 days after application, rating scale 0-100
Summary of the method: as §1

[6] = test system: lambsquarters (Chenopodium album, CHEAL); assay: as above; settings: post-emerge, 14 days after application, rating scale 0-100
Summary of the method: as §1

[7] = test system: sicklepod (Cassia obtusifolia, CASOB); assay: as above; settings: post-emerge, 14 days after application, rating scale 0-100
Summary of the method: as §1

[8] = test system: large crabgrass (Digitaria sanguinalis, DIGSA); assay: as above; settings: post-emerge, 14 days after application, rating scale 0-100
Summary of the method: as §1

[9] = test system: velvetleaf (Abutilon theophrasti, ABUTH); assay: as above; settings: post-emerge, 14 days after application, rating scale 0-100
Summary of the method: as §1

[10] = test system: upland rice (Oryza sp., var. Tebonnet, RICE); assay: Pre-emerge test, crop safety; settings: for Pre-emerge Herbicidal Activity RICE: crop damage rating 0-100, 14 days after application; for Pre-emerge phytotoxicity rating (0-100), crop damage, RICE: rated 14 days after application, 0 = no damage, 100 = complete death
Summary of the method: (§2)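 Applied at 15–1000 g ai/ha from acetone in 187 l/ha spray volume. Post-emergence applications included 0.25% v/v non-ionic surfactant and reached plants sown 8–21 days before. Pre-emergence applications were incorporated by surface watering. Efficacy or crop damage was rated on a 0–100 scale after 14 days.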

[11] = test system: field corn (Zea mays L., var. Dekalb 535, CORN); assay: Pre-emerge test, crop safety; settings: for Pre-emerge Herbicidal Activity CORN: crop damage rating 0-100, 14 days after application; for Pre-emerge phytotoxicity rating (0-100), crop damage, CORN: rated 14 days after application, 0 = no damage, 100 = complete death
Summary of the method: as §2

[12] = test system: redroot pigweed (Amaranthus retroflexus, AMARE); assay: Pre-emerge test, greenhouse herbicide activity screening; settings: for Pre-emerge Herbicidal Activity AMARE: phytotoxicity rating 0-100, 14 days after application; for Pre-emerge Herbicidal Activity, phytotoxicity rating (0-100), AMARE: rated 14 days after application, 0 = no damage, 100 = complete death
Summary of the method: (§3)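 Sandy loam pots; pre-emerge: sown 1 d pre-spray, surface-watered after, then bottom-watered. Post-emerge: sown 8–21 d before, 2–3 leaf stage, + 0.25% v/v NIS, bottom-watered. Acetone, 187 l/ha track spray, 15–1000 g ai/ha. 0–100 injury score, day 14.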

[13] = test system: upland rice (Oryza sp., var. Tebonnet, RICE); assay: Post-emerge test, crop safety; settings: post-emerge, 14 days after application, rating scale 0-100
Summary of the method: as §3

[14] = test system: field corn (Zea mays L., var. Dekalb 535, CORN); assay: Post-emerge test, crop safety; settings: post-emerge, 14 days after application, rating scale 0-100
Summary of the method: as §3

[15] = test system: green foxtail (Setaria viridis, SETVI); assay: Pre-emerge test, greenhouse herbicide activity screening; settings: for Pre-emerge Herbicidal Activity SETVI: phytotoxicity rating 0-100, 14 days after application; for Pre-emerge Herbicidal Activity, phytotoxicity rating (0-100), SETVI: rated 14 days after application, 0 = no damage, 100 = complete death
Summary of the method: as §3

[16] = test system: barnyardgrass (Echinochloa crus-galli, ECHCG); assay: as above; settings: for Pre-emerge Herbicidal Activity ECHCG: phytotoxicity rating 0-100, 14 days after application; for Pre-emerge Herbicidal Activity, phytotoxicity rating (0-100), ECHCG: rated 14 days after application, 0 = no damage, 100 = complete death
Summary of the method: as §3

[17] = test system: ivyleaf morningglory (Ipomoea hederacea, IPOHE); assay: as above; settings: for Pre-emerge Herbicidal Activity IPOHE: phytotoxicity rating 0-100, 14 days after application; for Pre-emerge Herbicidal Activity, phytotoxicity rating (0-100), IPOHE: rated 14 days after application, 0 = no damage, 100 = complete death
Summary of the method: as §3

[18] = test system: johnsongrass (Sorghum halepense, SORHA); assay: as above; settings: for Pre-emerge Herbicidal Activity SORHA: phytotoxicity rating 0-100, 14 days after application; for Pre-emerge Herbicidal Activity, phytotoxicity rating (0-100), SORHA: rated 14 days after application, 0 = no damage, 100 = complete death
Summary of the method: as §3

[19] = test system: lambsquarters (Chenopodium album, CHEAL); assay: as above; settings: for Pre-emerge Herbicidal Activity CHEAL: phytotoxicity rating 0-100, 14 days after application; for Pre-emerge Herbicidal Activity, phytotoxicity rating (0-100), CHEAL: rated 14 days after application, 0 = no damage, 100 = complete death
Summary of the method: as §3

[20] = test system: sicklepod (Cassia obtusifolia, CASOB); assay: as above; settings: for Pre-emerge Herbicidal Activity CASOB: phytotoxicity rating 0-100, 14 days after application; for Pre-emerge Herbicidal Activity, phytotoxicity rating (0-100), CASOB: rated 14 days after application, 0 = no damage, 100 = complete death
Summary of the method: as §3

[21] = test system: large crabgrass (Digitaria sanguinalis, DIGSA); assay: as above; settings: for Pre-emerge Herbicidal Activity DIGSA: phytotoxicity rating 0-100, 14 days after application; for Pre-emerge Herbicidal Activity, phytotoxicity rating (0-100), DIGSA: rated 14 days after application, 0 = no damage, 100 = complete death
Summary of the method: as §3

[22] = test system: velvetleaf (Abutilon theophrasti, ABUTH); assay: as above; settings: for Pre-emerge Herbicidal Activity ABUTH: phytotoxicity rating 0-100, 14 days after application; for Pre-emerge Herbicidal Activity, phytotoxicity rating (0-100), ABUTH: rated 14 days after application, 0 = no damage, 100 = complete death
Summary of the method: as §3

[23] = 250 g ai/ha, rating scale 0-100

SMILES: COc1c(Cl)cc(F)c(-n2c(=O)cc(C(F)(F)F)n(C)c2=O)c1NC(=O)OCc1ccc2ccccc2c1 [4-28]
- phytotoxicity rating SETVI ([1]; 63 g ai/ha): 10
- phytotoxicity rating SETVI ([1]; 250 g ai/ha): 30
- phytotoxicity rating AMARE ([2]; 63 g ai/ha, rating scale 0-100 (0 no damage, 100 complete death)): 80
- phytotoxicity rating AMARE [2, 23]: 100
- phytotoxicity rating ECHCG ([3]; 63 g ai/ha): 0
- phytotoxicity rating ECHCG ([3]; 250 g ai/ha): 20
- phytotoxicity rating IPOHE ([4]; 63 g ai/ha): 60
- phytotoxicity rating IPOHE ([4]; 250 g ai/ha): 80
- phytotoxicity rating SORHA ([5]; 63 g ai/ha): 0
- phytotoxicity rating SORHA ([5]; 250 g ai/ha): 10
- phytotoxicity rating CHEAL ([6]; 63 g ai/ha): 70
- phytotoxicity rating CHEAL ([6]; 250 g ai/ha): 90
- phytotoxicity rating CASOB ([7]; 63 g ai/ha): 50
- phytotoxicity rating CASOB ([7]; 250 g ai/ha): 50
- phytotoxicity rating DIGSA ([8]; 63 g ai/ha): 0
- phytotoxicity rating DIGSA ([8]; 250 g ai/ha): 20
- phytotoxicity rating ABUTH ([9]; 63 g ai/ha): 100
- phytotoxicity rating ABUTH ([9]; 250 g ai/ha): 100
- Pre-emerge Herbicidal Activity RICE ([10]; 63 g ai/ha): 0
- Pre-emerge Herbicidal Activity RICE ([10]; 250 g ai/ha): 15
- Pre-emerge Herbicidal Activity CORN ([11]; 63 g ai/ha): 0
- Pre-emerge Herbicidal Activity CORN ([11]; 250 g ai/ha): 0
- Pre-emerge Herbicidal Activity AMARE ([12]; 63 g ai/ha): 40
- Pre-emerge Herbicidal Activity AMARE ([12]; 250 g ai/ha): 70
- phytotoxicity rating RICE (crop damage) ([13]; 63 g ai/ha): 10
- phytotoxicity rating RICE (crop damage) ([13]; 250 g ai/ha): 15
- phytotoxicity rating CORN (crop damage) ([14]; 63 g ai/ha): 0
- phytotoxicity rating CORN (crop damage) ([14]; 250 g ai/ha): 5
- Pre-emerge Herbicidal Activity SETVI ([15]; 63 g ai/ha): 20
- Pre-emerge Herbicidal Activity SETVI ([15]; 250 g ai/ha): 60
- Pre-emerge Herbicidal Activity ECHCG ([16]; 63 g ai/ha): 0
- Pre-emerge Herbicidal Activity ECHCG ([16]; 250 g ai/ha): 0
- Pre-emerge Herbicidal Activity IPOHE ([17]; 63 g ai/ha): 0
- Pre-emerge Herbicidal Activity IPOHE ([17]; 250 g ai/ha): 0
- Pre-emerge Herbicidal Activity SORHA ([18]; 63 g ai/ha): 0
- Pre-emerge Herbicidal Activity SORHA ([18]; 250 g ai/ha): 0
- Pre-emerge Herbicidal Activity CHEAL ([19]; 63 g ai/ha): 70
- Pre-emerge Herbicidal Activity CHEAL ([19]; 250 g ai/ha): 100
- Pre-emerge Herbicidal Activity CASOB ([20]; 63 g ai/ha): 0
- Pre-emerge Herbicidal Activity CASOB ([20]; 250 g ai/ha): 0
- Pre-emerge Herbicidal Activity DIGSA ([21]; 63 g ai/ha): 0
- Pre-emerge Herbicidal Activity DIGSA ([21]; 250 g ai/ha): 0
- Pre-emerge Herbicidal Activity ABUTH ([22]; 63 g ai/ha): 20
- Pre-emerge Herbicidal Activity ABUTH ([22]; 250 g ai/ha): 60

SMILES: COc1c(Cl)cc(F)c(-n2c(=O)cc(C(F)(F)F)n(C)c2=O)c1N(C(=O)C=Cc1ccccc1Cl)C(=O)C=Cc1ccccc1Cl [2-83]
- phytotoxicity rating SETVI ([1]; 63 g ai/ha): 0
- phytotoxicity rating SETVI ([1]; 250 g ai/ha): 0
- phytotoxicity rating AMARE ([2]; 63 g ai/ha, rating scale 0-100): 40
- phytotoxicity rating AMARE [2, 23]: 90
- phytotoxicity rating ECHCG ([3]; 63 g ai/ha): 0
- phytotoxicity rating ECHCG ([3]; 250 g ai/ha): 0
- phytotoxicity rating IPOHE ([4]; 63 g ai/ha): 10
- phytotoxicity rating IPOHE ([4]; 250 g ai/ha): 20
- phytotoxicity rating SORHA ([5]; 63 g ai/ha): 0
- phytotoxicity rating SORHA ([5]; 250 g ai/ha): 0
- phytotoxicity rating CHEAL ([6]; 63 g ai/ha): 20
- phytotoxicity rating CHEAL ([6]; 250 g ai/ha): 50
- phytotoxicity rating CASOB ([7]; 63 g ai/ha): 0
- phytotoxicity rating CASOB ([7]; 250 g ai/ha): 0
- phytotoxicity rating DIGSA ([8]; 63 g ai/ha): 0
- phytotoxicity rating DIGSA ([8]; 250 g ai/ha): 0
- phytotoxicity rating ABUTH ([9]; 63 g ai/ha): 50
- phytotoxicity rating ABUTH ([9]; 250 g ai/ha): 70
- Pre-emerge phytotoxicity rating (0-100), crop damage, RICE ([10]; 63 g ai/ha): 0
- Pre-emerge phytotoxicity rating (0-100), crop damage, RICE ([10]; 250 g ai/ha): 0
- Pre-emerge phytotoxicity rating (0-100), crop damage, CORN ([11]; 63 g ai/ha): 0
- Pre-emerge phytotoxicity rating (0-100), crop damage, CORN ([11]; 250 g ai/ha): 0
- Pre-emerge Herbicidal Activity, phytotoxicity rating (0-100), AMARE ([12]; 63 g ai/ha): 60
- Pre-emerge Herbicidal Activity, phytotoxicity rating (0-100), AMARE ([12]; 250 g ai/ha): 100
- phytotoxicity rating RICE ([13]; 63 g ai/ha): 100
- phytotoxicity rating RICE ([13]; 250 g ai/ha): 0
- phytotoxicity rating CORN ([14]; 63 g ai/ha): 0
- phytotoxicity rating CORN ([14]; 250 g ai/ha): 0
- Pre-emerge Herbicidal Activity, phytotoxicity rating (0-100), SETVI ([15]; 63 g ai/ha): 0
- Pre-emerge Herbicidal Activity, phytotoxicity rating (0-100), SETVI ([15]; 250 g ai/ha): 40
- Pre-emerge Herbicidal Activity, phytotoxicity rating (0-100), ECHCG ([16]; 63 g ai/ha): 0
- Pre-emerge Herbicidal Activity, phytotoxicity rating (0-100), ECHCG ([16]; 250 g ai/ha): 0
- Pre-emerge Herbicidal Activity, phytotoxicity rating (0-100), IPOHE ([17]; 63 g ai/ha): 0
- Pre-emerge Herbicidal Activity, phytotoxicity rating (0-100), IPOHE ([17]; 250 g ai/ha): 0
- Pre-emerge Herbicidal Activity, phytotoxicity rating (0-100), SORHA ([18]; 63 g ai/ha): 0
- Pre-emerge Herbicidal Activity, phytotoxicity rating (0-100), SORHA ([18]; 250 g ai/ha): 20
- Pre-emerge Herbicidal Activity, phytotoxicity rating (0-100), CHEAL ([19]; 63 g ai/ha): 30
- Pre-emerge Herbicidal Activity, phytotoxicity rating (0-100), CHEAL ([19]; 250 g ai/ha): 90
- Pre-emerge Herbicidal Activity, phytotoxicity rating (0-100), CASOB ([20]; 63 g ai/ha): 0
- Pre-emerge Herbicidal Activity, phytotoxicity rating (0-100), CASOB ([20]; 250 g ai/ha): 0
- Pre-emerge Herbicidal Activity, phytotoxicity rating (0-100), DIGSA ([21]; 63 g ai/ha): 0
- Pre-emerge Herbicidal Activity, phytotoxicity rating (0-100), DIGSA ([21]; 250 g ai/ha): 30
- Pre-emerge Herbicidal Activity, phytotoxicity rating (0-100), ABUTH ([22]; 63 g ai/ha): 10
- Pre-emerge Herbicidal Activity, phytotoxicity rating (0-100), ABUTH ([22]; 250 g ai/ha): 100
